Measured values from PubChem BioAssay (NCI).
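96-well plates; 48 h exposure; 5 concentrations. Endpoints by linear interpolation between flanking doses. Not reached: highest tested concentration assigned. The concentration for full growth arrest is given as TGI.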

What was measured:
Assay in all cases: NCI anticancer screen, dose series, 48 h
786-0 renal = system: 786-0 renal
A498 renal = system: A498 renal
A549 NSCLC = system: A549 NSCLC
ACHN renal = system: ACHN renal
BT-549 breast = system: BT-549 breast
CAKI-1 renal = system: CAKI-1 renal
COLO 205 colon = system: COLO 205 colon
DU-145 prostate = system: DU-145 prostate
EKVX NSCLC = system: EKVX NSCLC
HCC-2998 colon = system: HCC-2998 colon
HCT-116 colon = system: HCT-116 colon
HCT-15 colon = system: HCT-15 colon
HL-60(TB) leukemia = system: HL-60(TB) leukemia
HOP-62 NSCLC = system: HOP-62 NSCLC
HOP-92 NSCLC = system: HOP-92 NSCLC
HS 578T breast = system: HS 578T breast
HT29 colon = system: HT29 colon
IGROV1 ovarian = system: IGROV1 ovarian
K-562 leukemia = system: K-562 leukemia
KM12 colon = system: KM12 colon
LOX IMVI melanoma = system: LOX IMVI melanoma
M14 melanoma = system: M14 melanoma
MALME-3M melanoma = system: MALME-3M melanoma
MCF7 breast = system: MCF7 breast
MDA-MB-231 breast = system: MDA-MB-231 breast
MDA-MB-435 = system: MDA-MB-435
MDA-N = system: MDA-N
MOLT-4 leukemia = system: MOLT-4 leukemia
NCI-H226 lung = system: NCI-H226 lung
NCI-H23 lung = system: NCI-H23 lung
NCI-H460 lung = system: NCI-H460 lung
NCI-H522 lung = system: NCI-H522 lung
NCI/ADR-RES ovarian = system: NCI/ADR-RES ovarian
OVCAR-3 ovarian = system: OVCAR-3 ovarian
OVCAR-4 ovarian = system: OVCAR-4 ovarian
OVCAR-5 ovarian = system: OVCAR-5 ovarian
OVCAR-8 ovarian = system: OVCAR-8 ovarian
PC-3 prostate = system: PC-3 prostate
RPMI-8226 leukemia = system: RPMI-8226 leukemia
RXF 393 renal = system: RXF 393 renal
SF-268 CNS = system: SF-268 CNS
SF-295 CNS = system: SF-295 CNS
SF-539 CNS = system: SF-539 CNS
SK-MEL-2 melanoma = system: SK-MEL-2 melanoma
SK-MEL-28 melanoma = system: SK-MEL-28 melanoma
SK-MEL-5 melanoma = system: SK-MEL-5 melanoma
SN12C renal = system: SN12C renal
SNB-19 CNS = system: SNB-19 CNS
SR leukemia = system: SR leukemia
SW-620 colon = system: SW-620 colon
TK-10 renal = system: TK-10 renal
U251 CNS = system: U251 CNS
UACC-257 melanoma = system: UACC-257 melanoma
UACC-62 melanoma = system: UACC-62 melanoma
UO-31 renal = system: UO-31 renal

Question: With `C=CC[C@H](O)[C@@](NC(=O)OCc1ccccc1)(Sc1ccc(C)cc1)C(F)(F)F` as the molecule, how does the TGI (786-0 renal) read?
Answer: 32.7 µM

Question: And the TGI (A498 renal)?
Answer: > 100 µM

Question: And the TGI (A549 NSCLC)?
Answer: > 100 µM

Question: What about the TGI (ACHN renal) of the same molecule?
Answer: > 100 µM

Question: And the TGI (BT-549 breast)?
Answer: 29.4 µM

Question: What about the TGI (CAKI-1 renal) of the same molecule?
Answer: 87.7 µM

Question: What about the TGI (COLO 205 colon) of the same molecule?
Answer: 39.1 µM

Question: And the TGI (DU-145 prostate)?
Answer: > 100 µM

Question: And the TGI (EKVX NSCLC)?
Answer: > 100 µM

Question: And the TGI (HCC-2998 colon)?
Answer: > 100 µM

Question: And the TGI (HCT-116 colon)?
Answer: 60.5 µM

Question: And the TGI (HCT-15 colon)?
Answer: > 100 µM

Question: What about the TGI (HL-60(TB) leukemia) of the same molecule?
Answer: 28.9 µM

Question: And the TGI (HOP-62 NSCLC)?
Answer: 78.1 µM

Question: What about the TGI (HOP-92 NSCLC) of the same molecule?
Answer: > 100 µM

Question: And the TGI (HS 578T breast)?
Answer: 82.8 µM

Question: What about the TGI (HT29 colon) of the same molecule?
Answer: > 100 µM

Question: And the TGI (IGROV1 ovarian)?
Answer: 24 µM

Question: And the TGI (K-562 leukemia)?
Answer: > 100 µM

Question: And the TGI (KM12 colon)?
Answer: > 100 µM

Question: What about the TGI (LOX IMVI melanoma) of the same molecule?
Answer: 16.9 µM

Question: And the TGI (M14 melanoma)?
Answer: 74.4 µM

Question: What about the TGI (MALME-3M melanoma) of the same molecule?
Answer: > 100 µM

Question: And the TGI (MCF7 breast)?
Answer: > 100 µM

Question: What about the TGI (MDA-MB-231 breast) of the same molecule?
Answer: 59.8 µM

Question: And the TGI (MDA-MB-435)?
Answer: 84 µM

Question: What about the TGI (MDA-N) of the same molecule?
Answer: 46.6 µM

Question: And the TGI (MOLT-4 leukemia)?
Answer: 87.2 µM

Question: What about the TGI (NCI-H226 lung) of the same molecule?
Answer: 35.9 µM

Question: And the TGI (NCI-H23 lung)?
Answer: 70.2 µM

Question: What about the TGI (NCI-H460 lung) of the same molecule?
Answer: > 100 µM

Question: And the TGI (NCI-H522 lung)?
Answer: 32.4 µM

Question: What about the TGI (NCI/ADR-RES ovarian) of the same molecule?
Answer: > 100 µM

Question: What about the TGI (OVCAR-3 ovarian) of the same molecule?
Answer: 48.5 µM

Question: And the TGI (OVCAR-4 ovarian)?
Answer: > 100 µM

Question: And the TGI (OVCAR-5 ovarian)?
Answer: 75.4 µM

Question: And the TGI (OVCAR-8 ovarian)?
Answer: 35.3 µM

Question: And the TGI (PC-3 prostate)?
Answer: > 100 µM

Question: And the TGI (RPMI-8226 leukemia)?
Answer: 71.6 µM

Question: What about the TGI (RXF 393 renal) of the same molecule?
Answer: 53 µM

Question: What about the TGI (SF-268 CNS) of the same molecule?
Answer: 47.9 µM

Question: And the TGI (SF-295 CNS)?
Answer: 66.7 µM

Question: And the TGI (SF-539 CNS)?
Answer: 29.7 µM

Question: And the TGI (SK-MEL-2 melanoma)?
Answer: 75.8 µM

Question: And the TGI (SK-MEL-28 melanoma)?
Answer: > 100 µM

Question: What about the TGI (SK-MEL-5 melanoma) of the same molecule?
Answer: > 100 µM

Question: What about the TGI (SN12C renal) of the same molecule?
Answer: 45.8 µM

Question: What about the TGI (SNB-19 CNS) of the same molecule?
Answer: > 100 µM

Question: What about the TGI (SR leukemia) of the same molecule?
Answer: 60.9 µM

Question: What about the TGI (SW-620 colon) of the same molecule?
Answer: > 100 µM

Question: And the TGI (TK-10 renal)?
Answer: > 100 µM

Question: What about the TGI (U251 CNS) of the same molecule?
Answer: 28.4 µM

Question: And the TGI (UACC-257 melanoma)?
Answer: 74.1 µM

Question: What about the TGI (UACC-62 melanoma) of the same molecule?
Answer: > 100 µM

Question: And the TGI (UO-31 renal)?
Answer: 55.4 µM
